In ChEMBL document CHEMBL1126682, “Quinolone antimicrobial agents substituted with morpholines at the 7-position. Syntheses and structure-activity relationships” (J Med Chem, 1993):
≈ marks a conversion by molar mass, not a printed value.

Tests used:
[1] = target: T1, GABA-A receptor; anion channel (Homo sapiens) (UniProt P14867+P47870+P18507+P28472+P48169+Q99928+Q9UN88+P34903+O00591+O14764+Q8N1C3+P18505+P78334+P47869+P31644+Q16445); assay: Percentage of GABA-induced chloride currents with compound alone at 10 e-4 M; format: functional; settings: Bull Frog
[2] = test system: Escherichia coli; assay: Minimum inhibition concentration against Escherichia coli NIHJ JC-2 strain; format: functional
[3] = test system: Staphylococcus aureus; assay: Effective dose against Staphylococcus aureus smith strain in mouse; format: functional
[4] = target: GABA-A receptor; anion channel; assay: Inhibition of [3H]muscimol binding to GABA A receptor with compound alone at 10 e-4 M; format: protein-complex assay
[5] = target: T1, GABA-A receptor; anion channel (Homo sapiens); assay: Percentage of GABA-induced chloride currents with 10 e-5 M 4-biphenylacetic acid; format: functional; settings: Bull Frog
[6] = test system: Streptococcus pneumoniae; assay: Minimum inhibition concentration against Streptococcus pneumoniae Type I strain; format: functional
[7] = test system: Pseudomonas aeruginosa; assay: Minimum inhibition concentration against Pseudomonas aeruginosa U-31 strain; format: functional
[8] = The compound was evaluated for the solubility in water at 25 degrees Centigrade; format: ADME
[9] = test system: Staphylococcus aureus; assay: Minimum inhibitory concentration against Staphylococcus aureus Smith; format: functional
[10] = test system: Staphylococcus aureus; assay: Minimum inhibition concentration against Staphylococcus aureus FDA209P strain; format: functional
[11] = target: GABA-A receptor; anion channel; assay: Inhibition of [3H]muscimol binding to GABA A receptor 4-biphenylacetic acid at 10 e-4 M; format: protein-complex assay; settings: read-out: IC50
[12] = test system: Mus musculus; assay: Percentage of mice with convulsion with compound alone at 400 mg/kg; format: functional
[13] = test system: Enterococcus faecalis; assay: Minimum inhibition concentration against Enterococcus faecalis LS-101 strain; format: functional
[14] = test system: Mus musculus; assay: Percentage of mice with convulsion (400 mg/kg fenbufen); format: functional
[15] = test system: Escherichia coli; assay: Effective dose against Escherichia coli KC14 strain in mouse; format: functional
[16] = test system: Escherichia coli; assay: Minimum inhibitory concentration against Escherichia coli KC14 strain; format: functional
[17] = target: T1, GABA-A receptor; anion channel (Homo sapiens); assay: Percentage of GABA-induced chloride currents with 10e-4 M 4-biphenylacetic acid; format: functional; settings: Bull Frog
[18] = test system: Staphylococcus aureus; assay: Minimum inhibition concentration against Staphylococcus aureus MRSA strain; format: functional

Compound | Currents [1] [%] | MIC [2] [µg/mL] | IC50 [4] [µM] | Currents [5] [%] | MIC [6] [µg/mL] | MIC [7] [µg/mL] | solubility [8] [µg/mL] | MIC [9] [µg/mL] | MIC [10] [µg/mL] | IC50 [11] [µM] | MIC [13] [µg/mL] | MIC [16] [µg/mL] | Currents [17] [%] | ED50 [3] [mg mouse-1] | Convulsion [12] [%] | Convulsion [14] [%] | ED50 [15] [mg mouse-1] | MIC [18] [µg/mL]
CC1COc2c(N3CCOC(CN)C3)c(F)cc3c(=O)c(C(=O)O)cn1c23 (centres undefined) |  | 3.13 (≈ 8.29 µM) |  |  | 12.5 (≈ 33.1 µM) | 25 (≈ 66.2 µM) |  |  | 0.78 (≈ 2.07 µM) |  | 3.13 (≈ 8.29 µM) |  |  |  |  |  |  | 
CCN(CC)CC1CN(c2c(F)cc3c(=O)c(C(=O)O)cn(C4CC4)c3c2F)CCO1 (centres undefined) |  | 0.39 (≈ 0.896 µM) |  |  | 0.1 (≈ 0.23 µM) | 6.25 (≈ 14.4 µM) |  |  | 0.1 (≈ 0.23 µM) |  | 0.39 (≈ 0.896 µM) |  |  |  |  |  |  | 
NCC1CN(c2c(F)cc3c(=O)c(C(=O)O)cn(C4CC4)c3c2F)CCO1 (centres undefined) | 90 | 0.1 (≈ 0.264 µM) | > 100 | 90 | 0.05 (≈ 0.132 µM) | 0.78 (≈ 2.06 µM) | 580 (≈ 1530 µM) | 0.012 (≈ 0.0316 µM) | 0.025 (≈ 0.0659 µM) | > 100 | 0.05 (≈ 0.132 µM) | 0.05 (≈ 0.132 µM) | 72 | 0.067 | 0 | 0 | 0.017 | 
NCC1CN(c2c(F)cc3c(=O)c(C(=O)O)cn(C4CC4)c3c2F)CCCO1 (centres undefined) |  | 0.39 (≈ 0.991 µM) |  |  | 1.56 (≈ 3.97 µM) | 6.25 (≈ 15.9 µM) |  |  | 0.78 (≈ 1.98 µM) |  | 1.56 (≈ 3.97 µM) |  |  |  |  |  |  | 
O=C(O)c1cn(C2CC2)c2c(F)c(N3CCNCC3)c(F)cc2c1=O | 81 | 0.006 (≈ 0.0172 µM) | 64 | 11 | 0.39 (≈ 1.12 µM) | 0.1 (≈ 0.286 µM) |  |  | 0.1 (≈ 0.286 µM) | 0.12 | 0.2 (≈ 0.573 µM) |  | 0 |  | 0 | 88 |  | 0.78 (≈ 2.23 µM)
CC(=O)NCC1CN(c2c(F)cc3c(=O)c(C(=O)O)cn(C4CC4)c3c2F)CCO1 (centres undefined) |  | 1.56 (≈ 3.7 µM) |  |  | 0.78 (≈ 1.85 µM) | 12.5 (≈ 29.7 µM) |  |  | 0.2 (≈ 0.475 µM) |  | 0.78 (≈ 1.85 µM) |  |  |  |  |  |  | 
O=C(O)c1cn(C2CC2)c2c(F)c(N3CCOC(CN4CCCCC4)C3)c(F)cc2c1=O (centres undefined) |  | 3.13 (≈ 6.99 µM) |  |  | 6.25 (≈ 14 µM) | 50 (≈ 112 µM) |  |  | 0.78 (≈ 1.74 µM) |  | 25 (≈ 55.9 µM) |  |  |  |  |  |  | 

Second part, led by results:

Currents [1] [%] | MIC [2] [µg/mL] | IC50 [4] [µM] | Currents [5] [%] | MIC [6] [µg/mL] | MIC [7] [µg/mL] | solubility [8] [µg/mL] | MIC [9] [µg/mL] | MIC [10] [µg/mL] | IC50 [11] [µM] | MIC [13] [µg/mL] | MIC [16] [µg/mL] | Currents [17] [%] | Compound | ED50 [3] [mg mouse-1] | Convulsion [12] [%] | Convulsion [14] [%] | ED50 [15] [mg mouse-1] | MIC [18] [µg/mL]
94 | 0.1 (≈ 0.254 µM) | > 100 | 90 | 0.1 (≈ 0.254 µM) | 3.13 (≈ 7.96 µM) | 630 (≈ 1600 µM) | 0.012 (≈ 0.0305 µM) | 0.025 (≈ 0.0636 µM) | > 100 | 0.1 (≈ 0.254 µM) | 0.05 (≈ 0.127 µM) | 78 | CNCC1CN(c2c(F)cc3c(=O)c(C(=O)O)cn(C4CC4)c3c2F)CCO1 (centres undefined) | 0.044 | 0 | 0 | 0.024 | 
93 | 0.2 (≈ 0.553 µM) | > 100 | 90 | 0.39 (≈ 1.08 µM) | 1.56 (≈ 4.32 µM) | 390 (≈ 1080 µM) | 0.05 (≈ 0.138 µM) | 0.2 (≈ 0.553 µM) | > 100 | 0.2 (≈ 0.553 µM) | 0.1 (≈ 0.277 µM) | 81 | NCC1CN(c2cc3c(cc2F)c(=O)c(C(=O)O)cn3C2CC2)CCO1 (centres undefined) | 0.835 | 0 | 0 | 0.139 | 
 | 0.1 (≈ 0.253 µM) |  |  | 0.05 (≈ 0.126 µM) | 1.56 (≈ 3.94 µM) |  |  | 0.012 (≈ 0.0303 µM) |  | 0.05 (≈ 0.126 µM) |  |  | NCC1CN(c2c(F)cc3c(=O)c(C(=O)O)cn(C4CC4)c3c2Cl)CCO1 (centres undefined) |  |  |  |  | 
 | 1.56 (≈ 3.97 µM) |  |  | 0.39 (≈ 0.991 µM) | 12.5 (≈ 31.8 µM) |  |  | 0.2 (≈ 0.508 µM) |  | 0.39 (≈ 0.991 µM) |  |  | NCCC1CN(c2c(F)cc3c(=O)c(C(=O)O)cn(C4CC4)c3c2F)CCO1 (centres undefined) |  |  |  |  | 
